Literature values, collected in patent US12318421B2 (priority 2020, dated 2025).

Biological target: α-glucosidase
Conditions: values disclosed in references

## O=c1cc(-c2ccc(O)cc2)oc2cc(O)c([C@@H]3O[C@H](CO)[C@@H](O)[C@H](O)[C@H]3O)c(O)c12 [isovitexin]
  IC50 of α-glucosidase activity disclosed in references: 46.9 µg/mL
